Calls of active or inactive are those of the source. The rule behind the calls is not given here.
Test system: rodent carcinogenicity bioassays, tumor incidence
Assay: CCRIS carcinogenicity studies
Method in brief: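 NCI-built, expert-reviewed records of carcinogenicity and related test outcomes (mutagenicity, tumor promotion/inhibition) compiled from published and report sources, historical span 1985-2011, not updated.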

Measured: carcinogen call

CCOC(N)=O
active: Species: HAMSTER, Route: DERMAL, Tumor Site: Type of Lesion: INTEGUMENTARY SYSTEM (SKIN), MAMMARY GLAND active; positive | Species: HAMSTER, Route: INTRAPERITONEAL, Tumor Site: Type of Lesion: INTEGUMENTARY SYSTEM (SKIN) active; positive | Species: HAMSTER, Route: ORAL, Tumor Site: Type of Lesion: FORESTOMACH, INTEGUMENTARY SYSTEM (SKIN) active; positive | Species: HAMSTER, Route: SUBCUTANEOUS, Tumor Site: Type of Lesion: ADRENAL GLAND, FORESTOMACH, INTESTINES, INTEGUMENTARY SYSTEM (SKIN), Tumor Site: Type of Lesion: ADRENAL GLAND, FORESTOMACH, INTESTINES, INTEGUMENTARY SYSTEM (SKIN) active; positive | Species: MOUSE, Route: INHALATION, Tumor Site: Type of Lesion: LUNG active; positive | Species: MOUSE, Route: INTRAPERITONEAL, Tumor Site: Type of Lesion: HEMATOPOIETIC SYSTEM (LEUKEMIA), LYMPHATIC SYSTEM: LYMPHOMA, LUNG, LIVER, HARDERIAN GLAND, OVARIES, Tumor Site: Type of Lesion: HEMATOPOIETIC SYSTEM (LEUKEMIA), LYMPHATIC SYSTEM: LYMPHOMA, LUNG, LIVER, HARDERIAN GLAND, OVARIES active; positive | Species: MOUSE, Route: INTRAPERITONEAL, Tumor Site: Type of Lesion: LUNG, LIVER active; positive | Species: MOUSE, Route: ORAL, Tumor Site: Type of Lesion: HEMATOPOIETIC SYSTEM (LEUKEMIA): LYMPHOCYTIC LEUKEMIA, LYMPHATIC SYSTEM: LYMPHOSARCOMA, MAMMARY GLAND, LUNG, LIVER, THYM, Tumor Site: Type of Lesion: HEMATOPOIETIC SYSTEM (LEUKEMIA): LYMPHOCYTIC LEUKEMIA, LYMPHATIC SYSTEM: LYMPHOSARCOMA, MAMMARY GLAND, LUNG, LIVER, THYM active; positive | Species: MOUSE, Route: SUBCUTANEOUS, Tumor Site: Type of Lesion: HARDERIAN GLAND, HEMATOPOIETIC SYSTEM (LEUKEMIA), LIVER, LUNG, Tumor Site: Type of Lesion: HARDERIAN GLAND, HEMATOPOIETIC SYSTEM (LEUKEMIA), LIVER, LUNG active; positive | Species: MOUSE, Strain/Sex: B6C3F1/FEMALE (48/GROUP), Route: ORAL, Dose: 10, 30, 90 PPM IN DRINKING WATER (STUDY DURATION: 2 YRS), Dose: 10, 30, 90 PPM IN DRINKING WATER (STUDY DURATION: 2 YRS), Tumor Site: Type of Lesion: MAMMARY GLAND: ADENOACANTHOMA, ADENOCARCINOMA, OVARY: GRANULOSA CELL TUMOR (BENIGN OR MALIGNANT), SPLEEN: HEMANGIOSARCOM, Tumor Site: Type of Lesion: MAMMARY GLAND: ADENOACANTHOMA, ADENOCARCINOMA, OVARY: GRANULOSA CELL TUMOR (BENIGN OR MALIGNANT), SPLEEN: HEMANGIOSARCOM active; positive ; marginal but not significant increases of hemangiosarcomas occurred i | Species: MOUSE, Strain/Sex: B6C3F1/MALE (48/GROUP), Route: ORAL, Dose: 10, 30, 90 PPM IN DRINKING WATER (STUDY DURATION: 2 YRS), Dose: 10, 30, 90 PPM IN DRINKING WATER (STUDY DURATION: 2 YRS), Tumor Site: Type of Lesion: HEART: HEMANGIOSARCOMA, FORESTOMACH: SQUAMOUS CELL PAPILLOMA OR CARCINOMA (COMBINED), SKIN: SQUAMOUS CELL PAPILLOMA OR C, Tumor Site: Type of Lesion: HEART: HEMANGIOSARCOMA, FORESTOMACH: SQUAMOUS CELL PAPILLOMA OR CARCINOMA (COMBINED), SKIN: SQUAMOUS CELL PAPILLOMA OR C active; positive | Species: MOUSE, Strain/Sex: B6C3F1/MALE, FEMALE (48/GROUP), Route: ORAL, Dose: 10, 30, 90 PPM IN DRINKING WATER (STUDY DURATION: 2 YRS), Dose: 10, 30, 90 PPM IN DRINKING WATER (STUDY DURATION: 2 YRS), Tumor Site: Type of Lesion: LIVER: HEMANGIOSARCOMA, HEPATOCELLULAR ADENOMA OR CARCINOMA (COMBINED), LUNG: ADENOMA OR CARCINOMA (COMBINED): HARDERIAN active; positive | Species: MOUSE, Strain/Sex: B6C3F1/MALE, Route: INTRAPERITONEAL, Dose: 0, 125 UG/G BW IN 10 µL TRIOCTANOIN ONCE (STUDY DURATION: 9 MO), Tumor Site: Type of Lesion: LIVER: HEPATOMA active; positive | Species: MOUSE, Strain/Sex: B6C3F1/MALE, Route: ORAL, Dose: 0, 0.6, 3, 6, 60, 600 PPM IN DRINKING WATER FOR 70 WK (STUDY DURATION: 70 WK), Dose: 0, 0.6, 3, 6, 60, 600 PPM IN DRINKING WATER FOR 70 WK (STUDY DURATION: 70 WK), Tumor Site: Type of Lesion: LUNG: ALVEOLAR/BRONCHIOLAR CARCINOMA, ALVEOLAR/BRONCHIOLAR ADENOMA, LIVER: ANGIOSARCOMA, HEMANGIOMA active; positive | Species: MOUSE, Strain/Sex: C57BL, Route: INTRAPERITONEAL, Dose: 1.00 MG/G 10 TIMES AT WEEKLY INTERVALS, Tumor Site: Type of Lesion: THYMUS GLAND: LYMPHOSARCOMA, LUNG: ADENOMA active; positive | Species: MOUSE, Strain/Sex: CTM/MALE,FEMALE, Route: ORAL, Dose: 0, 0.4% IN DRINKING WATER, 1 OR 2 10-D TREATMENTS OR 1, 2 OR 3 5-D TREATMENTS WITH 10-D INTERVALS BETWEEN TREATMENTS, Dose: 0, 0.4% IN DRINKING WATER, 1 OR 2 10-D TREATMENTS OR 1, 2 OR 3 5-D TREATMENTS WITH 10-D INTERVALS BETWEEN TREATMENTS, Tumor Site: Type of Lesion: LUNG: ADENOMA, LYMPHOSARCOMA active; positive | Species: MOUSE, Strain/Sex: HR/HR/MALE, FEMALE, Route: DERMAL, Dose: 0, 10, 20, 40% IN 200 µL ACETONE 2/WK FOR STUDY DURATION (STUDY DURATION: 56-60 WK), Dose: 0, 10, 20, 40% IN 200 µL ACETONE 2/WK FOR STUDY DURATION (STUDY DURATION: 56-60 WK), Tumor Site: Type of Lesion: SKIN: CARCINOMA, PAPILLOMA, LUNG: ADENOMA active; positive | Species: MOUSE, Strain/Sex: HR/HR/MALE, FEMALE, Route: DERMAL, Dose: 0, 15, 30, 75% IN PROPYLENE GLYCOL 2/WK FOR STUDY DURATION (STUDY DURATION: 56-60 WK), Dose: 0, 15, 30, 75% IN PROPYLENE GLYCOL 2/WK FOR STUDY DURATION (STUDY DURATION: 56-60 WK), Tumor Site: Type of Lesion: SKIN: CARCINOMA, PAPILLOMA, LUNG: ADENOMA active; positive | Species: MOUSE, Strain/Sex: ICR/FEMALE, Route: INHALATION, Dose: 0, 0.25 UG/ML AIR FOR 0.25 D (TOTAL DOSE 0.25 UG/ML/D) (STUDY DURATION: 5 MO), Tumor Site: Type of Lesion: LUNG: TUMOR, HEMATOPOIETIC SYSTEM: LEUKEMIA active; positive | Species: MOUSE, Strain/Sex: ICR/FEMALE, Route: INHALATION, Dose: 0, 0.25 UG/ML AIR FOR 3 D (TOTAL DOSE 0.75 UG/ML/D) (STUDY DURATION: 5 MO), Tumor Site: Type of Lesion: LUNG: TUMOR, HEMATOPOIETIC SYSTEM: LEUKEMIA active; positive
